According to BindingDB's records for doi:10.1021/acschembio.5b00817 (University of Leipzig, 2015):

Key:
[1] = biological target: T1, Signal transducer and activator of transcription 5A (Homo sapiens, UniProt P42229); assay: Fluorescence Polarization Assay
T1 sequence (P42229 whole entry): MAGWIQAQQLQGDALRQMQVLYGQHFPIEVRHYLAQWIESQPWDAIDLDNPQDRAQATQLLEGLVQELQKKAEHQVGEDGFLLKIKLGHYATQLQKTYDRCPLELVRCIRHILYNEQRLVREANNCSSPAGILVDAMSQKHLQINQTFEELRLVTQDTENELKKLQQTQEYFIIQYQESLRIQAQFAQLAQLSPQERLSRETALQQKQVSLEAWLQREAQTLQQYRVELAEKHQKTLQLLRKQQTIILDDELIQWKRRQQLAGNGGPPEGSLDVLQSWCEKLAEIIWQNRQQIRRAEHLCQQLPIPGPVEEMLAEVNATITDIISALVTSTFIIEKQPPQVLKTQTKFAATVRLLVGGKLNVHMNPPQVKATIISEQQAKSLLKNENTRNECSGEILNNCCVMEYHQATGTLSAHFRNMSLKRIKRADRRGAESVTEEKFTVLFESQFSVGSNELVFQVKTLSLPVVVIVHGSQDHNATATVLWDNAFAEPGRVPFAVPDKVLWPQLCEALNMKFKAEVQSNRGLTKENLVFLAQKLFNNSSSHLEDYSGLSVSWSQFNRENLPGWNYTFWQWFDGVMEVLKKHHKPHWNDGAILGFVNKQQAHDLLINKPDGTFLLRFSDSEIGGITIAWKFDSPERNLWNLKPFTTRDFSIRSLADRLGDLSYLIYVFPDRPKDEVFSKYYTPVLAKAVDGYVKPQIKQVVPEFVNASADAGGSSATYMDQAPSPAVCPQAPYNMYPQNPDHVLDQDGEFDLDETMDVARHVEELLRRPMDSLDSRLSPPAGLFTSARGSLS
Description: (§1) For competition-based fluorescence polarization assays, the ability of the test compounds to displace fluorophore-labeled peptides from their respective binding proteins was analyzed as previously described.3 Peptide sequences were: STAT1: 5-carboxyfluorescein-GY(PO3H2)DKPHVL; STAT3: 5-carboxyfluorescein-GY(PO3H2)LPQTV-NH2; STAT4: 5-carboxyfluorescein-GY(PO3H2)LPQNID-OH; STAT5a and STAT5b: 5-carboxyfluorescein-GY(PO3H2)LVLDKW; STAT6: 5-carboxyfluorescein-GY(PO3H2)VPWQDLI-OH; Lck SH2: 5-carboxyfluorescein-GY(PO3H2)EEIP. Due to protein instability, STAT2 was not analyzed. Final concentration of 5-carboxyfluorescein-labeled peptides: 10 nM. […] Pipetting was carried out partly using a Biomek FX workstation (Beckman-Coulter). Pr

[2] = biological target: T2, Signal transducer and activator of transcription 5B (Homo sapiens, UniProt P51692); assay: Fluorescence Polarization Assay
T2 sequence (P51692 whole entry): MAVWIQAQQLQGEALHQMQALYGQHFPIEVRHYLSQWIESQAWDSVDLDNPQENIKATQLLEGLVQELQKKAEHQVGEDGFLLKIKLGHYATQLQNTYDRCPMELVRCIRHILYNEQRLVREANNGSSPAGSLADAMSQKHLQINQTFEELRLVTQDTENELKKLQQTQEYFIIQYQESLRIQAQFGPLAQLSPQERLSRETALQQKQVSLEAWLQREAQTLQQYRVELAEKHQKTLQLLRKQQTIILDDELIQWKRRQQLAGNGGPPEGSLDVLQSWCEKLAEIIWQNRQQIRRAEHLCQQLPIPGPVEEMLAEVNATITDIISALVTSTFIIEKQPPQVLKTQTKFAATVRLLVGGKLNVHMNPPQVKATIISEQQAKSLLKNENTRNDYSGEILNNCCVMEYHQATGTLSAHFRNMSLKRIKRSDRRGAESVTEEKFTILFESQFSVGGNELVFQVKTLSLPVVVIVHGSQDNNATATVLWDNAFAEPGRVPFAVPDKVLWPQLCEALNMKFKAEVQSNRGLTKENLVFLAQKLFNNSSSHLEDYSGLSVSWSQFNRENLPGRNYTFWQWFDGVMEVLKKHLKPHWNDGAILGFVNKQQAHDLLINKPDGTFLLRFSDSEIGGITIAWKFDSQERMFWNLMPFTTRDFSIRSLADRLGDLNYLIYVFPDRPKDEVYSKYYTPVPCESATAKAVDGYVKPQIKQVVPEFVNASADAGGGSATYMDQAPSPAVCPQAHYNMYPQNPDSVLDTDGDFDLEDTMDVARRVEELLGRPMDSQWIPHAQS
Description: as §1

Row | SMILES | IC50 [1] [µM] | Ki [1] [µM] | IC50 [2] [µM] | Ki [2] [µM]
1 | CCCCCCCCC(=O)NCc1ccc(OP(=O)(O)O)c(OC)c1 [2-Methoxy-4-(nonanamidomethyl)phenyl dihydrogen phosphate (3b)] | 98 | 49 | 196 | 96
2 | CCCCCCCCC(=O)NCc1ccc(OP(=O)(O)O)c(OP(=O)(O)O)c1 [4-(Nonanamidomethyl)-1,2-phenylene bis(dihydrogen phosphate) (6b)] | 24.9 | 12.3 | 0.86 | 0.39
3 | COc1cc(CNC(=O)CCCCCCC(C)C)ccc1OP(=O)(O)O [2-Methoxy-4-((8-methylnonanamido)methyl)phenyl dihydrogen phosphate (3a)] | 152 | 75 | – | –
4 | CC(C)CCCCCCC(=O)NCc1ccc(OP(=O)(O)O)c(OP(=O)(O)O)c1 [4-((8-Methylnonanamido)methyl)-1,2-phenylene bis(dihydrogen phosphate) (6a)] | 26.4 | 13 | 0.75 | 0.34
